Source: patent US20120328696A1, “ANTI-PARKINSONIAN COMPOUND ACETYLSALICYLIC ACID MALTOL ESTER” (Hutecs Korea Pharmaceutical Co., Ltd., priority 2008, published 2012)

Assays:
Assay type in all cases: in vivo
[1] = test system: GPx-1 (+/+)- and GPx-1 (−/−)-mice; assay: Locomotor activity after MA; settings: MA 8 mg/kg i.p. x4, GPx-1 (+/+) and (−/−) mice
Description: (§1) The mice received four times of MA (8 mg/kg, ip) or saline as a 2 hr-time interval. Chemicals (AME, EBS, and PKC inhibitors) were administrated for 5 consecutive days (twice daily), and were given 2 times at 4 hr and 30 min before the first MA injection as shown in the experimental schedule. Animals were sacrificed at 4 hrs and 3 days after the final MA administration.
Locomotor activity was measured for 30 min 3 days after the last MA administration using an automated video-tracking system (Noldus Information Technology, Wagenin, The Netherlands). Four test boxes (40×40×30 cm high) were operated simultaneously by an IBM computer. Mice were studied individually during locomotion in each test box, where they were adapted for 5 min before starting the experiment. […] The distance traveled in cm by the animals in horizontal locomotor activity was analyzed. Data were collected and analyzed between 09:00 and 17:00 h (Kim et al., 2001).

PKCδ [2] = assay: Striatal PKCδ expression after MA (western blot); settings: MA 8 mg/kg i.p. x4, GPx-1 (+/+) and (−/−) mice; for effect on MA-induced striatal PKCδ expression: p.o., AME 25 or 50, EBS 10 or 20, rottlerin 10 or 20 mg/kg
Description: as §1
Tissues were homogenized in lysis buffer, containing 200 mM Tris HCl (pH 6.8), 1% SDS, 5 mM EGTA (ethylene glycol tetraacetic acid), 5 mM EDTA (ethylenediaminetetraacetic acid), 10% glycerol, 1× phosphatase inhibitor cocktail I, 1× protease inhibitor cocktail. Lysate was centrifuged at 12,000×g for 30 min and supernatant fraction was used for Western blot analysis. […] And then, membranes were incubated with HRP-conjugated secondary anti-rabbit IgG (1:1000, GE healthcare, Piscataway, N.J., USA), anti-mouse IgG (1:1000, Sigma) or anti-goat IgG (1:1000, Sigma) for 2 h. Subsequent visualization was performed using enhanced chemiluminescence system (ECL Plus®, GE healthcare).

PKCδ [3] = assay: Striatal PKCδ-like immunoreactivity after MA (immunocytochemistry); settings: p.o.; AME 50, EBS 20, rottlerin 20 mg/kg; MA 8 mg/kg i.p. x4; GPx-1 (+/+) and (−/−) mice
Description: as §1
Animals were sacrificed at 4 hours and 3 days after the last MA injection. They were anesthetized with 60% urethane and perfused transcardially with 50 ml of 50 mM phosphate buffered saline (PBS), followed by 50 ml of a mixture of 4% paraformaldehyde in PBS. The rate of perfusion was 50 ml/min. The brains were removed, post-fixed at 4° C. for 24 h in the same fixative and then cryoprotected in 30% sucrose in PBS.
(§2) The immunocytochemistry was performed as described previously (Kim et al., 2000a, b). Briefly, prior to incubation with the primary antibodies, sections were preincubated with 0.3% hydrogen peroxide in PBS for 30 min (to block endogenous peroxidase activity), then in PBS containing 0.4% Triton X-100 for 20 min and 1% normal serum for 20 min. The sections were then incubated for 48 h at 4° C. in primary antibody against tyrosine hydroxylase (1:500, Chemicon, Termecula, Calif., USA), GPx1 (1:500, AbFrontier, Seoul, Korea), PKC (1:200, Santa Cruz biotechnology INC, CA, USA) or F4/80 (1:50, Serotec, Raleigh, N.C., USA). The sections were further incubated with secondary biotinylated antisera (1:1000 dilution; Vector, Brulingame, Calif.) for 1 hr, and immersed in avidin-biotin-peroxidase complex (ABC Elite kit, Vector) for 1 hr. Sections were always washed three times with PBS (pH 7.4) between each incubation step. 3,3′-diaminobenzidine (DAB) was used as a chromogen.

tyrosine hydroxylase = assay: Striatal and nigral TH-like immunoreactivity after MA (immunocytochemistry); settings: p.o., AME 50, EBS 20, rottlerin 20 mg/kg, MA 8 mg/kg i.p. x4, GPx-1 (+/+) and (−/−) mice; for effect on MA-induced reduction in striatal TH-IR: striatum; for effect on MA-induced nigral reduction in TH-IR: substantia nigra pars compacta
Description: as §1
Animals were sacrificed at 4 hours and 3 days after the last MA injection. They were anesthetized with 60% urethane and perfused transcardially with 50 ml of 50 mM phosphate buffered saline (PBS), followed by 50 ml of a mixture of 4% paraformaldehyde in PBS. The rate of perfusion was 50 ml/min. The brains were removed, post-fixed at 4° C. for 24 h in the same fixative and then cryoprotected in 30% sucrose in PBS. The brains were cut on a horizontal sliding microstome into 40 μm transverse free-floading sections (Kim et al., 1999).
as §2

p53 = assay: Striatal p53 expression after MA (western blot); settings: p.o.; AME 50, EBS 20, rottlerin 20 mg/kg; MA 8 mg/kg i.p. x4; GPx-1 (+/+) and (−/−) mice
Description: as §1
(§3) The western blot assays was performed as described previously (Kim et al., 2003). Tissues were homogenized in lysis buffer, containing 200 mM Tris HCl (pH 6.8), 1% SDS, 5 mM EGTA (ethylene glycol tetraacetic acid), 5 mM EDTA (ethylenediaminetetraacetic acid), 10% glycerol, 1× phosphatase inhibitor cocktail I, 1× protease inhibitor cocktail. Lysate was centrifuged at 12,000×g for 30 min and supernatant fraction was used for Western blot analysis. Proteins (20-50 ug/lane) were separated by 6%, 8%, 10% or 15% sodium dodecyl sulfate-polyacrylamide gel electrophoresis and transferred onto the PVDF membranes. Following transfer, the membranes were preincubated with 5% non-fat milk and incubated overnight at 4° C. with primary antibody against β-actin (1:50000, Sigma, St. Louis, Mo., USA), TH (1:5000, Chemicon), TH phosphor-Ser 19 (1:1000, Chemicon,), TH phosphor-Ser 31 (1:500, Chemicon), TH phosphor-Ser 40 (1:500, Chemicon), F4/80 (1:500, Serotec), GPx1 (1:2500, AbFrontier), PKC (1:5000, Santa Cruz biotechnology, Santa Cruz, Calif., USA), p53 (1:5000, Cell signaling, Beverly, Mass., USA), MDM2 (1:1000, BD Pharmingen, San Jose, Calif., USA), MDM2 phospho-Ser 166 (1:1000, cell signaling), BDNF (1:500, Chemicon), GDNF (1:250, Santa Cruz), COX-2 (1:2000, Cayman, Ann Arbor, MC, USA), IL-6 (1:2000, Abcam, Cambridge, Mass., USA), TNF-a (1:1000, R&D Systems, Mckinley place NE, NM, USA), IFN-γ (1:500, Chemicon) or Iba-1 (1:500, Wako, Osaka, Japan). And then, membranes were incubated with HRP-conjugated secondary anti-rabbit IgG (1:1000, GE healthcare, Piscataway, N.J., USA), anti-mouse IgG (1:1000, Sigma) or anti-goat IgG (1:1000, Sigma) for 2 h. […]

phospho MDM2-ser 166 = assay: Striatal phospho-MDM2 expression after MA (western blot); settings: p.o.; AME 50, EBS 20, rottlerin 20 mg/kg; MA 8 mg/kg i.p. x4; GPx-1 (+/+) and (−/−) mice
Description: as §1, §3

[4] = test system: brain-derived neurotrophic factor (BDNF); assay: Striatal BDNF expression after MA (western blot); settings: p.o.; AME 50, EBS 20, rottlerin 20 mg/kg; MA 8 mg/kg i.p. x4; GPx-1 (+/+) and (−/−) mice
Description: as §1, §3

[5] = p.o., AME 25 or 50, EBS 10 or 20, rottlerin 10 or 20 mg/kg

SMILES | effect on MA-induced impairment in locomotor activity [1, 5] | effect on MA-induced striatal PKCδ expression (PKCδ [2]) | effect on MA-induced increase in striatal PKCδ-IR (PKCδ [3]) | effect on MA-induced reduction in striatal TH-IR (tyrosine hydroxylase) | effect on MA-induced nigral reduction in TH-IR (tyrosine hydroxylase) | effect on MA-induced increase in striatal p53 expression (p53) | effect on MA-induced decrease in phospho-MDM2 expression (phospho MDM2-ser 166) | effect on MA-induced reduction in BDNF expression [4] | effect on MA-induced impairment in locomotor activity ([1]; PKC inhibitors intra-striatal (chelerythrine 0.2 ug/head, rottlerin 3.0 ug/head significant)) | effect on MA-induced increase in striatal PKCδ expression (PKCδ [2]; intra-striatal)
O=c1c2ccccc2[se]n1-c1ccccc1 [EBS, 2-phenyl-1,2-benzisoselenazol-3(2H)-one] | inhibited these effects in a dose-dependent manner | significantly reduced MA-induced the PKCδ- and cleaved PKCδ-expressions in a dose-related manner | significantly attenuated MA-induced increase in striatal PKCδ-IR | attenuated this reduction in striatal TH-IR | significantly attenuated MA-induced nigral reduction in TH-IR | significantly inhibited MA-induced increase in p53 expression | significantly attenuated | significantly attenuated these reductions | – | –
CC(=O)c1c(O)c(C)c(O)c(Cc2c(O)c3c(c(C(=O)/C=C/c4ccccc4)c2O)OC(C)(C)C=C3)c1O [rottlerin] | inhibited these effects in a dose-dependent manner | significantly reduced MA-induced the PKCδ- and cleaved PKCδ-expressions in a dose-related manner | significantly attenuated MA-induced increase in striatal PKCδ-IR | attenuated this reduction in striatal TH-IR | significantly attenuated MA-induced nigral reduction in TH-IR | significantly inhibited MA-induced increase in p53 expression | significantly attenuated | significantly attenuated these reductions | attenuated the MA-behavioral impairments in a dose-dependent manner | attenuated the MA-induced increases in PKCδ expressions in a dose-dependent manner
CC(=O)Oc1ccccc1C(=O)Oc1c(C)occc1=O [AME, 3-(2-methyl-4-pyronyl)-2-acetyloxybenzoate] | inhibited these effects in a dose-dependent manner | significantly reduced MA-induced the PKCδ- and cleaved PKCδ-expressions in a dose-related manner | significantly attenuated MA-induced increase in striatal PKCδ-IR | attenuated this reduction in striatal TH-IR | significantly attenuated MA-induced nigral reduction in TH-IR | significantly inhibited MA-induced increase in p53 expression | significantly attenuated | significantly attenuated these reductions | – | –
